These results are taken from PubChem BioAssay AID256 (DTP/NCI, 2004).

The test deals with CD2F1 mice, L1210 leukemia ip, survival T/C. As to the kind of experiment: NCI In Vivo Anticancer Drug Screen. Data for tumor model L1210 Leukemia (intraperitoneal) in CD2F1 (CDF1) mice. The note with it: higher = longer survival. Summed up: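 Activity against a transplanted murine tumor was judged by comparing the compound group with a vehicle group. The outcome in the treated animals was divided by that in the controls.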

Where [1] appears, read: endpoint: mean survival time, dose: 100.0 mg/kg/injection, schedule: Q01DX001 (ip), vehicle: saline.
The mark [2] stands for this setting: endpoint: mean survival time, dose: 100.0 mg/kg/injection, schedule: Q04DX003 (ip), vehicle: saline.
Where [3] appears, read: endpoint: mean survival time, dose: 200.0 mg/kg/injection, schedule: Q01DX001 (ip), vehicle: saline.
The mark [4] stands for this setting: endpoint: mean survival time, dose: 200.0 mg/kg/injection, schedule: Q04DX003 (ip), vehicle: saline.
Setting [5] is: endpoint: mean survival time, dose: 400.0 mg/kg/injection, schedule: Q01DX001 (ip), vehicle: saline.
The mark [6] stands for this setting: endpoint: mean survival time, dose: 100.0 mg/kg/injection, schedule: Q01DX009 (ip), vehicle: saline with Tween-80.
Setting [7] is: endpoint: mean survival time, dose: 200.0 mg/kg/injection, schedule: Q01DX009 (ip), vehicle: saline with Tween-80.
Where [8] appears, read: endpoint: mean survival time, dose: 400.0 mg/kg/injection, schedule: Q01DX009 (ip), vehicle: saline with Tween-80.
Setting [9] is: endpoint: mean survival time, dose: 100.0 mg/kg/injection, schedule: Q04DX003 (ip), vehicle: saline with Tween-80.
[10] abbreviates: endpoint: mean survival time, dose: 200.0 mg/kg/injection, schedule: Q04DX003 (ip), vehicle: saline with Tween-80.
The mark [11] stands for this setting: endpoint: mean survival time, dose: 400.0 mg/kg/injection, schedule: Q04DX003 (ip), vehicle: saline with Tween-80.

“And” between values parts separate entries of the source, which are not always exact repeats. Identical values can stand only once. Toxic doses and inconclusive results are not listed.

Regarding `Cc1ccc(S(=O)(=O)/C=C/c2ccccc2)cc1`, the T/C reads like this: under setting [1], 103 % of control; under setting [2], 96 % of control; under setting [3], 108 % of control; under setting [4], 93 % of control; under setting [5], 100 % of control; (endpoint: mean survival time, dose: 400.0 mg/kg/injection, schedule: Q04DX003 (ip), vehicle: saline) 87 % of control.
For `O=NN(CCCl)C(=O)Oc1cc(Cl)c(Cl)cc1Cl`, the T/C is 106 % of control (endpoint: median survival time, dose: 6.0 mg/kg/injection, schedule: Q01DX009 (ip), vehicle: Klucel (hydroxypropylcellulose) (HPC)); 124 % of control (endpoint: median survival time, dose: 12.0 mg/kg/injection, schedule: Q01DX009 (ip), vehicle: Klucel (hydroxypropylcellulose) (HPC)); 109 % of control (endpoint: median survival time, dose: 12.5 mg/kg/injection, schedule: Q01DX009 (ip), vehicle: Klucel (hydroxypropylcellulose) (HPC)); 195 % of control (endpoint: median survival time, dose: 50.0 mg/kg/injection, schedule: Q01DX009 (ip), vehicle: Klucel (hydroxypropylcellulose) (HPC)).
In the case of `CNC(=S)C#N`, the T/C is 100 % of control (endpoint: median survival time, dose: 6.25 mg/kg/injection, schedule: Q01DX005 (ip), vehicle: saline + Tween-80 + alcohol); 97 % of control (endpoint: median survival time, dose: 12.5 mg/kg/injection, schedule: Q01DX005 (ip), vehicle: saline + Tween-80 + alcohol); 98 % of control and 102 % of control (endpoint: median survival time, dose: 25.0 mg/kg/injection, schedule: Q01DX005 (ip), vehicle: saline + Tween-80 + alcohol); 87 % of control and 112 % of control (endpoint: median survival time, dose: 50.0 mg/kg/injection, schedule: Q01DX005 (ip), vehicle: saline + Tween-80 + alcohol).
Consider `CCCN(CCC)S(=O)(=O)c1ccc(NC(=O)OC2CCCCCCC2)cc1`, for which the T/C is 92 % of control under setting [1], 98 % of control under setting [3] and 101 % of control under setting [5].
Turning to `C(=N\C(/N=C/c1ccccc1)c1ccccc1)/c1ccccc1`, the T/C under setting [1] was 100 % of control, the T/C under setting [3] was 103 % of control and the T/C under setting [5] was 106 % of control.
Turning to `[Cl][Mn][Cl]`, the T/C by setting is: (endpoint: median survival time, dose: 8.0 mg/kg/injection, schedule: Q01DX009 (ip), vehicle: saline) 92 % of control; (endpoint: median survival time, dose: 16.0 mg/kg/injection, schedule: Q01DX009 (ip), vehicle: saline) 97 % of control; (endpoint: median survival time, dose: 32.0 mg/kg/injection, schedule: Q01DX009 (ip), vehicle: saline) 103 % of control; (endpoint: median survival time, dose: 64.0 mg/kg/injection, schedule: Q01DX009 (ip), vehicle: saline) 110 % of control.
As for `CC(C)(OC(=O)C(NC=O)C(C)(C)S)OC(=O)C(NC=O)C(C)(C)S` (stereo unspecified), the T/C by setting is: under setting [6], 101 % of control; under setting [7], 101 % of control; under setting [8], 101 % of control.
For `Cc1ccc(S(=O)(=O)OCC(O)C(O)C(O)C(O)C=O)cc1` (stereo unspecified) (tested in a mixture with another compound), the T/C by setting is: under setting [6], 103 % of control; under setting [7], 95 % of control; under setting [8], 112 % of control.
Turning to `Cn1nc(NC=O)c(C#N)c1C#N`, the T/C was 102 % of control (endpoint: mean survival time, dose: 37.5 mg/kg/injection, schedule: Q04DX002 (ip), vehicle: saline with Tween-80); 102 % of control (endpoint: mean survival time, dose: 75.0 mg/kg/injection, schedule: Q04DX002 (ip), vehicle: saline with Tween-80); 98 % of control (endpoint: mean survival time, dose: 150.0 mg/kg/injection, schedule: Q04DX002 (ip), vehicle: saline with Tween-80).
For the compound `CCCCCCCCCCCCCCCCCCCCCC(=O)OC`, the T/C under setting [6] is 102 % of control; the T/C under setting [9] was 89 % of control; the T/C under setting [7] is 103 % of control; the T/C under setting [10] was 90 % of control; the T/C under setting [8] is 100 % of control; the T/C under setting [11] is 87 % of control.
In the case of `CCC1CCCC[N-]1.CCC1CCCC[N-]1.[Cl][Pt+2][Cl]` (stereo unspecified), the T/C reads like this: (endpoint: mean survival time, dose: 18.8 mg/kg/injection, schedule: Q04DX003 (ip), vehicle: saline with Tween-80) 106 % of control; (endpoint: mean survival time, dose: 37.5 mg/kg/injection, schedule: Q04DX003 (ip), vehicle: saline with Tween-80) 100 % of control; (endpoint: mean survival time, dose: 75.0 mg/kg/injection, schedule: Q04DX003 (ip), vehicle: saline with Tween-80) 91 % of control; (endpoint: mean survival time, dose: 150.0 mg/kg/injection, schedule: Q04DX003 (ip), vehicle: saline with Tween-80) 91 % of control; (endpoint: mean survival time, dose: 300.0 mg/kg/injection, schedule: Q04DX003 (ip), vehicle: saline with Tween-80) 88 % of control.
With `C=C[Si]12OCCN(CCO1)CCO2`, the T/C runs as follows: (endpoint: mean survival time, dose: 12.5 mg/kg/injection, schedule: Q01DX009 (ip), vehicle: Klucel (hydroxypropylcellulose) (HPC)) 97 % of control and 105 % of control; (endpoint: mean survival time, dose: 25.0 mg/kg/injection, schedule: Q01DX009 (ip), vehicle: Klucel (hydroxypropylcellulose) (HPC)) 95 % of control and 96 % of control; (endpoint: mean survival time, dose: 50.0 mg/kg/injection, schedule: Q01DX009 (ip), vehicle: Klucel (hydroxypropylcellulose) (HPC)) 92 % of control and 100 % of control; (endpoint: mean survival time, dose: 100.0 mg/kg/injection, schedule: Q01DX009 (ip), vehicle: Klucel (hydroxypropylcellulose) (HPC)) 92 % of control and 94 % of control; (endpoint: mean survival time, dose: 200.0 mg/kg/injection, schedule: Q01DX009 (ip), vehicle: Klucel (hydroxypropylcellulose) (HPC)) 88 % of control and 94 % of control; (endpoint: mean survival time, dose: 400.0 mg/kg/injection, schedule: Q01DX009 (ip), vehicle: Klucel (hydroxypropylcellulose) (HPC)) 88 % of control and 95 % of control.
Turning to `O=C(O)c1ccco1`, the T/C was 94 % of control under setting [2] and 95 % of control under setting [4].
With `CCOC(=O)Nc1cc(NCCc2ccccc2)c([N+](=O)[O-])c(N)n1`, the T/C is 91 % of control (endpoint: mean survival time, dose: 100.0 mg/kg/injection, schedule: Q01DX001 (ip), vehicle: Klucel (hydroxypropylcellulose) (HPC)); 94 % of control (endpoint: mean survival time, dose: 200.0 mg/kg/injection, schedule: Q01DX001 (ip), vehicle: Klucel (hydroxypropylcellulose) (HPC)); 86 % of control (endpoint: mean survival time, dose: 400.0 mg/kg/injection, schedule: Q01DX001 (ip), vehicle: Klucel (hydroxypropylcellulose) (HPC)).
Consider `C=C(Br)CNC(=O)C(F)(F)F`, for which the T/C (endpoint: mean survival time, dose: 6.25 mg/kg/injection, schedule: Q01DX009 (ip), vehicle: saline) is 100 % of control; the T/C (endpoint: mean survival time, dose: 6.25 mg/kg/injection, schedule: Q04DX003 (ip), vehicle: saline) is 96 % of control; the T/C (endpoint: mean survival time, dose: 12.5 mg/kg/injection, schedule: Q01DX009 (ip), vehicle: saline) is 102 % of control; the T/C (endpoint: mean survival time, dose: 12.5 mg/kg/injection, schedule: Q04DX003 (ip), vehicle: saline) is 98 % of control; the T/C (endpoint: mean survival time, dose: 25.0 mg/kg/injection, schedule: Q01DX009 (ip), vehicle: saline) is 108 % of control; the T/C (endpoint: mean survival time, dose: 25.0 mg/kg/injection, schedule: Q04DX003 (ip), vehicle: saline) was 93 % of control.
With `O=S1(=O)CCC1`, the T/C reads like this: (endpoint: mean survival time, dose: 75.0 mg/kg/injection, schedule: Q01DX001 (ip), vehicle: saline) 114 % of control; (endpoint: mean survival time, dose: 150.0 mg/kg/injection, schedule: Q01DX001 (ip), vehicle: saline) 97 % of control; (endpoint: mean survival time, dose: 300.0 mg/kg/injection, schedule: Q01DX001 (ip), vehicle: saline) 105 % of control.
Turning to `Clc1ccc([I+]c2ccc(Cl)cc2)cc1`, the T/C (endpoint: median survival time, dose: 25.0 mg/kg/injection, schedule: Q04DX002 (ip), vehicle: saline with Tween-80) was 102 % of control; the T/C (endpoint: median survival time, dose: 50.0 mg/kg/injection, schedule: Q04DX002 (ip), vehicle: saline with Tween-80) was 98 % of control; the T/C (endpoint: median survival time, dose: 100.0 mg/kg/injection, schedule: Q04DX002 (ip), vehicle: saline with Tween-80) was 91 % of control.
As to `CCc1ccc(C(C)(C)C)cc1`, the T/C is, setting by setting: under setting [9], 99 % of control; under setting [10], 105 % of control.
Take `NC(N)=NC(=S)Nc1ccccc1`: the T/C (endpoint: mean survival time, dose: 100.0 mg/kg/injection, schedule: Q01DX001 (ip), vehicle: saline with Tween-80) was 118 % of control; the T/C (endpoint: mean survival time, dose: 200.0 mg/kg/injection, schedule: Q01DX001 (ip), vehicle: saline with Tween-80) is 103 % of control; the T/C (endpoint: mean survival time, dose: 400.0 mg/kg/injection, schedule: Q01DX001 (ip), vehicle: saline with Tween-80) is 118 % of control.
Consider `O=S(=O)(Oc1ccccc1)c1ccc(Cl)cc1`, for which the T/C is 95 % of control under setting [6]; 98 % of control under setting [9]; 98 % of control under setting [7]; 96 % of control under setting [10]; 98 % of control under setting [8]; 102 % of control under setting [11].
Take `CCCCOC(=O)c1ccc2c(ccc[n+]2C)c1`: the T/C runs as follows: (endpoint: mean survival time, dose: 37.5 mg/kg/injection, schedule: Q01DX009 (ip), vehicle: saline with Tween-80) 97 % of control; (endpoint: mean survival time, dose: 75.0 mg/kg/injection, schedule: Q01DX009 (ip), vehicle: saline with Tween-80) 103 % of control; (endpoint: mean survival time, dose: 150.0 mg/kg/injection, schedule: Q01DX009 (ip), vehicle: saline with Tween-80) 107 % of control.
